According to US20100204151A1, “USE OF A PEPTIDE AS A THERAPEUTIC AGENT” (priority 2007, published 2010):

Tests used:
[1] = tested on: HIV-1IIIB; experiment: HIV-1 antiviral assay (CPE reduction) in CEM-SS cells; assay type: cell-based; settings: for antiviral activity of positive control compounds: HIV-1 assay validity statement; for % CPE reduction in HIV-1 infected CEM-SS cells: test peptide 10 micrograms per ml, 6 days post-infection, MTS
[2] = tested on: CEM-SS cells; experiment: Cytotoxicity in the HIV-1 assay (MTS cell viability); settings: test peptide 10 micrograms per ml
[3] = tested on: HCMV strain AD169; experiment: HCMV plaque reduction assay in MRC-5 cells
[4] = tested on: hepatitis B virus (HBV) ayw strain; experiment: HBV replication assay in HepG2-2.2.15 cells (TaqMan PCR of secreted HBV DNA); assay type: cell-based; settings: test peptide 10 micrograms per ml; six days; HBV DNA in supernatant
[5] = Cytotoxicity in the HBV assay (dye uptake cell viability); assay type: cell-based; settings: human, HepG2-2.2.15 cells, test peptide 10 micrograms per ml
[6] = tested on: Pseudomonas aeruginosa; assay type: cell-based; settings: 5 micrograms per ml
[7] = tested on: Streptococcus pneumoniae; assay type: cell-based; settings: 5 micrograms per ml
[8] = tested on: A549 cells; experiment: Propidium iodide cell cycle assay; assay type: cell-based, human; settings: 10 micrograms per ml, 24 hours, propidium iodide FACS
Experimental: Human A549 cells (carcinomic human alveolar basal epithelial cells) were utilized in the experiments employing the Propidium iodide cell cycle assay. […] Propidium iodide is an intercalating agent and a fluorescent molecule that can be used to stain DNA. […] Thereafter, cells were pelleted at 1500 rpm for 5 min and resuspended in Propidium iodide solution in PBS. After incubation for 40 min at 37° C., cells were analyzed in the FACS.

[9] = tested on: Human Peripheral Blood Mononuclear Cells (PBMC); experiment: B cell proliferation assay (SAC plus Interleukin-2 stimulated PBMC, 3H-thymidine); assay type: cell-based; settings: 10 micrograms per ml, 3 days plus 12 hours 3H-thymidine
[10] = tested on: RAW 264.7 cells; experiment: Phagocytosis assay (Fluorescein-labeled Escherichia coli, flow cytometry); assay type: cell-based, mouse; settings: 10 micrograms per ml, 30 min preincubation, 60 min ingestion
[11] = tested on: A549 cells; experiment: Apoptosis induction assay (Annexin-5); assay type: cell-based, human; settings: 10 micrograms per ml, 24 hours
From the text: Human A549 cells (carcinomic human alveolar basal epithelial cells) were utilized in the experiments employing the Annexin-5 apoptosis assay.

[12] = tested on: A549 cells; experiment: Apoptosis prevention assay (C2 ceramide, Annexin-5); assay type: cell-based, human; settings: 10 micrograms per ml, 30 min pretreatment, then C2 ceramide
[13] = tested on: spleen cells; experiment: Th1/Th2 cytokine profiling assay (Ovalbumin-restimulated spleen cells, CBA kit); assay type: cell-based, Balb/c mice; settings: 10 micrograms per ml; Ovalbumin restimulation; 72 hours
[14] = tested on: macrophages prepared from PBMC; experiment: TNF alpha production assay (LPS-stimulated macrophages, ELISA); assay type: cell-based, human; settings: 10 micrograms per ml, lipopolysaccharide 200 ng/ml, overnight
From the text: Not stimulated macrophages served as negative background control.

[15] = tested on: Primary Human endothelial cells (HUVEC); experiment: Endothelial cell migration assay; assay type: cell-based; settings: 10 micrograms per ml, 22 hours
[16] = tested on: HUVEC; experiment: Endothelial tube formation assay; assay type: cell-based, human; settings: 10 micrograms per ml, 20 hours
From the text: Positive control was vehicle only.

[17] = tested on: MRSA; settings: 5 micrograms per ml
[18] = in vitro; settings: human, CEM-SS cells
[19] = in vitro; settings: human, MRC-5 cells (embryonal lung fibroblasts)
[20] = tested on: Human Peripheral Blood Mononuclear Cells (PBMC); experiment: T cell proliferation assay (PHA-stimulated PBMC, 3H-thymidine); settings: 10 micrograms per ml, 3 days plus 12 hours 3H-thymidine

## Cc1cn([C@H]2C[C@H](N=[N+]=[N-])[C@@H](CO)O2)c(=O)[nH]c1=O [AZT]
[1]
  antiviral activity of positive control compounds: expected levels of antiviral activity
  % CPE reduction in HIV-1 infected CEM-SS cells: 99%
[2]
  % Cell viability: 97%

## Nc1nc(O)c2ncn(COC(CO)CO)c2n1 [Ganciclovir, reference compound]
[3]; HCMV assay validity statement
  antiviral activity of positive control compound: expected levels of antiviral activity

## CC(C)(C)NC(=O)[C@@H]1CN(Cc2cccnc2)CCN1C[C@@H](O)C[C@@H](Cc1ccccc1)C(=O)N[C@H]1c2ccccc2C[C@H]1O [Indinavir, indinavir]
[1]
  antiviral activity of positive control compounds: expected levels of antiviral activity

## Ac-HWAVGHL-NH2 [Acetyl-GRP (20-26), Ac-His-Trp-Ala-Val-Gly-His-Leu-NH2]
[1]
  % CPE reduction in HIV-1 infected CEM-SS cells: 0.0%
[4]
  % inhibition of HBV replication in HEP G2 cells: 47.8%
[5]
  viability at 144 h, 10 micrograms per ml: 95.3%
[6]
  % inhibition: 0.0%
[7]
  % inhibition: 0.0%
[8]
  Cell cycle analysis G0/G1: 59.2
  Cell cycle analysis G2/M: 9.6
  Cell cycle analysis S: 31.2
[9]
  % of SAC/IL2 induced control: 123.6%
[10]
  % of control phagocytosis: 102.9%
[11]
  % of induction: 1.1%
[12]
  % prevention of ceramide induced apoptosis: 0.0%
[13]
  IFNγ spleen cells; TH1 response (% of control): 117.9 % of control
  IL-2 spleen cells (% of control): 202.7 % of control
  IL-4 spleen cells; TH2 response (% of control): 168.7 % of control
  IL-5 spleen cells; TH2 response (% of control): 102.5 % of control
  TNF-a spleen cells; TH1 response (% of control): 145.8 % of control
[14]
  % of LPS induction: 102.4%
[15]
  % inhibition of migration: 50%
[16]
  % inhibition of tube formation: 24%
[17]
  % inhibition: 0.0%
[18]
  viability at 10 micrograms per ml: 100%
[19]
  viability at 144 h: 100%
[3]; HCMV in MRC-5 cells, peptide 10 micrograms per ml, 7-10 days
  % plaque reduction: 3.2%
[20]
  % of PHA induced control: 97.5%
